Measurements from patent US10154992B2, “Compounds and methods for treating HIV infection” (THE REGENTS OF THE UNIVERSITY OF CALIFORNIA, priority 2016, dated 2018).

Key:
[1] = test system: Tat-hybrid reporter cell lines (HeLa); assay: MTT cell viability run in parallel with the Tat-hybrid assay; format: cell-based; conditions: Table 6; at 50,000 nM
Protocol: (§1) Cells were counted and plated into white 384-well or 96-well cell-culture treated assay plates and compounds were added. After 48 hours, the cells were prepared for luminescence assays that were performed on a plate reader (Tecan Evolution or MD Analyst). The cytotoxicity of each compound was determined in parallel via MTT-based cell viability assays.
as §1, with “Tat hybrid reporter assay. […] Previously characterized thienopyridines and diaminoacridine were used as controls. Cells” for “Cells”, “384-well” for “384-well or 96-well”, “lumincescence” for “luminescence”, “assays. […]” for “assays.”

[2] = as above; format: cell-based; conditions: human, Tat-hybrid reporter cell lines (HeLa); Table 6; second 'EC50' entry of the cell, values D/E
Protocol: as §1
as §1, with “Tat hybrid reporter assay. […] Previously characterized thienopyridines and diaminoacridine were used as controls. Cells” for “Cells”, “384-well” for “384-well or 96-well”, “lumincescence” for “luminescence”, “assays. […]” for “assays.”

Structure (SMILES) | Tat hybrid cell viability at 50,000 nM [1] | EC50 at 48 h [2]
NC(=O)c1sc2nc3c(c(-c4cccnc4)c2c1N)CCC3 | Z (Z = <30%) | 
Cc1cc(C)c2nc3sc(C(N)=O)c(N)c3cc2c1 | X (X = >60%) | 
COc1ccc2cc3c(N)c(C(N)=O)sc3nc2c1 | Y (Y = 30-60%) | 
COc1ccc2nc3sc(C(N)=O)c(N)c3cc2c1 | X (X = >60%) | 
COc1cc2cc3c(N)c(C(N)=O)sc3nc2cc1OC | X (X = >60%) | 
CCc1nc2sc(C(N)=O)c(N)c2cc1C | X (X = >60%) | 
CCN(CC)C(=O)c1sc2nc(C)cc(C)c2c1N | Y (Y = 30-60%) | 
NC(=O)c1sc2nc3c(cc2c1N)CCC3 | X (X = >60%) | 
N#Cc1cc2c(N)c(C(N)=O)sc2nc1N | Z (Z = <30%) | 
Cc1cc2cc3c(N)c(C(N)=O)sc3nc2cc1C | X (X = >60%) | 
Cc1ccc2cc3c(N)c(C(N)=O)sc3nc2c1C | X (X = >60%) | 
Cc1ccc(-c2cc(C(F)F)nc3sc(C(N)=O)c(N)c23)cc1 | X (X = >60%) | 
COc1ccc(NC(=O)c2sc3nc(N)c(C#N)c(-c4cccs4)c3c2N)cc1 | X (X = >60%) | 
CCOc1ccc2nc3sc(C(N)=O)c(N)c3cc2c1 | X (X = >60%) | 
COC(=O)c1sc2nc(C)c(C)c(C)c2c1N | Y (Y = 30-60%) | 
CC(=O)C1=C(C)Nc2sc(C(N)=O)c(N)c2C1c1cccnc1 (stereo not drawn) | X (X = >60%) | 
COCc1cc(C)nc2sc(C(=O)OC)c(N)c12 | X (X = >60%) | 
Cc1cc(C(F)F)nc2sc(C(N)=O)c(N)c12 | X (X = >60%) | > 40 µM
Cc1cc(C(F)(F)F)nc2sc(C(N)=O)c(N)c12 | Y (Y = 30-60%) | > 40 µM
CC(C)c1ccc2nc3sc(C(N)=O)c(N)c3cc2c1 | X (X = >60%) | < 40 µM
NC(=O)c1sc2nc(-c3cccs3)cc(C(F)(F)F)c2c1N | Y (Y = 30-60%) | 
NC(=O)c1sc2nc(C3CC3)cc(-c3ccccc3)c2c1N | X (X = >60%) | 
COc1ccc(-c2c(C#N)c(N)nc3sc(C(N)=O)c(N)c23)cc1OC | Y (Y = 30-60%) | 

Structure (SMILES) | Tat hybrid cell viability at 50,000 nM [1] | EC50 at 48 h [2]
COc1ccc(-c2c3c(nc4sc(C(N)=O)c(N)c24)CCCC3)cc1 | X (X = >60%) | 
NC(=O)c1sc2nc(-c3ccccc3)cc(C(F)(F)F)c2c1N | X (X = >60%) | 
N#Cc1c(N)nc2sc(C(N)=O)c(N)c2c1-c1ccc(Br)cc1 | X (X = >60%) | 
COCc1cc(C)c2c(N)c(C(N)=O)sc2n1 | Y (Y = 30-60%) | 
N#Cc1c(N)nc2sc(C(=O)Nc3ccc(Cl)cc3)c(N)c2c1-c1cccs1 | X (X = >60%) | 
COc1ccc(-c2cc(-c3ccc(Cl)cc3)c3c(N)c(C(N)=O)sc3n2)cc1 | X (X = >60%) | 
N#Cc1c(N)nc2sc(C(=O)Nc3ccc(Br)cc3)c(N)c2c1-c1cccs1 | X (X = >60%) | 
COCc1cc(C)nc2sc(C(=O)c3ccc(Cl)cc3)c(N)c12 | X (X = >60%) | 
COCc1cc(C)nc2sc(C(=O)Nc3ccc(NC(C)=O)cc3)c(N)c12 | X (X = >60%) | 
NC(=O)c1sc2nc(C(F)F)cc(-c3ccccc3)c2c1N | X (X = >60%) | 
COCc1cc(C)nc2sc(C(=O)N3CCOCC3)c(N)c12 | Y (Y = 30-60%) | 
NC(=O)c1sc2nc(-c3ccc(Cl)cc3)cc(-c3ccc(Cl)cc3)c2c1N | X (X = >60%) | 
NC(=O)c1sc2nc(-c3ccc(F)cc3)cc(-c3ccccc3)c2c1N | X (X = >60%) | 
COCc1cc(C)nc2sc(C(=O)Nc3cc(C)ccc3F)c(N)c12 | X (X = >60%) | 
CCc1nnc(NC(=O)c2sc3nc(C)cc(COC)c3c2N)s1 | X (X = >60%) | 
NNC(=O)c1sc2ncccc2c1N | X (X = >60%) | 
N#Cc1c(N)nc2sc(C(=O)Nc3ccccc3)c(N)c2c1-c1cccs1 | X (X = >60%) | 
CC(=O)C1=C(C)Nc2sc(C(N)=O)c(N)c2C1c1ccccc1 (stereo not drawn) | Y (Y = 30-60%) | 
Cc1ccc2c(N)c(C(N)=O)sc2n1 [drawing 227] | X (X = >60%) | 
COc1ccc(-c2cc(-c3ccccc3)nc3sc(C(N)=O)c(N)c23)cc1 [drawing 256] | X (X = >60%) | 
COc1ccc(-c2cc(-c3ccccc3)nc3sc(C(N)=O)c(N)c23)cc1 [drawing 268] | Y (Y = 30-60%) | 
Cc1ccc2c(N)c(C(N)=O)sc2n1 [drawing 277] | X (X = >60%) | 
